# Assay results reported in US12378248B2 (The United States of America, as represented by the …, priority 2018, dated 2025).
# Legend:
# [1] = target: T1, hA1AR (Homo sapiens, UniProt P30542); assay: Radioligand binding in membranes of CHO cells expressing hA1AR, [3H]N6-R-phenylisopropyladenosine; settings: read-out: A1AR % inhibition or Ki; for Ki: (h)
# T1 construct: expressed in transfected cells; host or cells: CHO
# T1 sequence (P30542 1-326): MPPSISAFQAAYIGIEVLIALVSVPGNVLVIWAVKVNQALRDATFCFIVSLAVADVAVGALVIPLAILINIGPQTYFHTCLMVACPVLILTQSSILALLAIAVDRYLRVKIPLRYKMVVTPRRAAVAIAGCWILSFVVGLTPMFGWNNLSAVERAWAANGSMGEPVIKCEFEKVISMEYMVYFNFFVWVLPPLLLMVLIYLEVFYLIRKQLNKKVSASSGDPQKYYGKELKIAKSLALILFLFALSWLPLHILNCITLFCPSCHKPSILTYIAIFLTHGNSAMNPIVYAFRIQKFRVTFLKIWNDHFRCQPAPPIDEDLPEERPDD
# [2] = target: T2, hA2AAR (Homo sapiens, UniProt P29274); assay: Radioligand binding in membranes of HEK293 cells expressing hA2AAR; settings: read-out: A2AAR % inhibition
# T2 construct: expressed in transfected cells; host or cells: HEK293
# [3] = target: mA2AAR (Mus musculus, UniProt Q60613); assay: Adenosine receptor binding, mA2AAR; settings: read-out: A2AAR % inhibition (converted)
# [4] = target: muscarinic receptor M5 (Homo sapiens, UniProt P08912); assay: Off-target interaction determined by the PDSP; assay type: binding; settings: read-out: Off-target, receptor (h, unless noted) (Ki, μM): M5
# [5] = target: T3, hA3AR (Homo sapiens, UniProt P0DMS8); assay: Radioligand binding in membranes of CHO cells expressing hA3AR; settings: read-out: A3AR % inhibition or Ki; for Ki: (h)
# T3 construct: expressed in transfected cells; host or cells: CHO
# T3 sequence (P0DMS8 1-318): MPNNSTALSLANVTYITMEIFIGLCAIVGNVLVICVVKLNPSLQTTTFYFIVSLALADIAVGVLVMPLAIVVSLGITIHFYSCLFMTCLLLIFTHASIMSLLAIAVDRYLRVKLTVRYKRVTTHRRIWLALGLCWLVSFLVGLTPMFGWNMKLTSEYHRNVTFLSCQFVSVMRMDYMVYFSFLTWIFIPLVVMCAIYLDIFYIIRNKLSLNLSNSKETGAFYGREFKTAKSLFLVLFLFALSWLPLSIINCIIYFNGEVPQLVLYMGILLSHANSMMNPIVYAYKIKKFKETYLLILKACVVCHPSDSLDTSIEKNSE
# [6] = target: T4, mA3AR (Mus musculus, UniProt Q61618); assay: Adenosine receptor binding, mA3AR; settings: for Ki: (m), read-out: A3AR % inhibition or Ki (converted)
# T4 sequence (Q61618 1-319): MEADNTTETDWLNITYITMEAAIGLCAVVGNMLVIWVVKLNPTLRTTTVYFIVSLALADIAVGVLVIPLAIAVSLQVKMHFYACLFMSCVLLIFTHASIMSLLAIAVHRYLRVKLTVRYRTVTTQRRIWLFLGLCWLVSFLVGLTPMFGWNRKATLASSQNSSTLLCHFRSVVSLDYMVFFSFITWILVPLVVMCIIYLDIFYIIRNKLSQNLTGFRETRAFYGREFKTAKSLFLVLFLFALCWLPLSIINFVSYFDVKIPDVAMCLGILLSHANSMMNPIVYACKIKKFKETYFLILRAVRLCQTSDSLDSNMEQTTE
# [7] = target: T5, mA1AR (Mus musculus, UniProt Q60612); assay: Adenosine receptor binding, mA1AR; settings: (m); Ki; read-out: A1AR % inhibition or Ki (converted)
# T5 sequence (Q60612 1-326): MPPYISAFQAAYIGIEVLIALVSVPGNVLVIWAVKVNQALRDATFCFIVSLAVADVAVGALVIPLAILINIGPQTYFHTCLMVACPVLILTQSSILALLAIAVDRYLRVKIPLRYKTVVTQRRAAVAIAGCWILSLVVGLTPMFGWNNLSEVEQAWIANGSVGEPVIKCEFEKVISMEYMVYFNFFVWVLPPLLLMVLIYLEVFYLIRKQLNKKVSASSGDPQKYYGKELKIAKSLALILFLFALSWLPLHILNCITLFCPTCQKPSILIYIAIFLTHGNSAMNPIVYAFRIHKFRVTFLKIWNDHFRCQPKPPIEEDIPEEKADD
# [8] = target: T6, serotonin receptor 5HT2C (Homo sapiens, UniProt P28335); assay: Off-target interaction determined by the PDSP; assay type: binding; settings: read-out: Off-target, receptor (h, unless noted) (Ki, μM): 5HT2C
# T6 sequence (P28335 33-458): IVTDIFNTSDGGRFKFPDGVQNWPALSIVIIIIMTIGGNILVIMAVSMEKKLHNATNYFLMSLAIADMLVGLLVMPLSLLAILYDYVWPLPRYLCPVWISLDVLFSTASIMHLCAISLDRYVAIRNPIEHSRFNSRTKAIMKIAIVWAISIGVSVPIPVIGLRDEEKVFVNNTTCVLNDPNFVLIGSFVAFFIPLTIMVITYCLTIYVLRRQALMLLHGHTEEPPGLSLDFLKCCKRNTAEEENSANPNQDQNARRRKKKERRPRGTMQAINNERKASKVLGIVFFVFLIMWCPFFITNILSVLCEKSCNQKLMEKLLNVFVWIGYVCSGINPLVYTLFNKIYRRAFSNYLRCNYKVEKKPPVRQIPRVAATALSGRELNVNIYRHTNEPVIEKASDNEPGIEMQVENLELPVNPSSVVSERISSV
# [9] = system: wild-type C57BL/6J mice; assay: Locomotor activity by telemetry after ip dosing; assay type: in vivo, mouse; settings: average from dosing to 60 min, mean±SD
# Description: (§1) Compounds were dosed ip. Tb and activity were measured by telemetry and the averages from dosing to 60 min were calculated. […] Data are for the highest dose used and are mean±SD from 3 to 22 mice/group (usually 5-7). P values are unpaired t-Test vs vehicle-treated controls assayed simultaneously. Vehicle data are mean±SD from all (n=83) vehicle treated mice.
# [10] = target: TSPO (translocator protein) (UniProt P30536); assay: Off-target interaction determined by the PDSP; assay type: binding, human; settings: read-out: Off-target, receptor (h, unless noted) (Ki, μM): TSPO
# [11] = target: dopamine transporter (DAT) (Homo sapiens, UniProt Q01959); assay: Off-target interaction determined by the PDSP; assay type: binding; settings: read-out: Off-target, receptor (h, unless noted) (Ki, μM): DAT
# [12] = system: wild-type C57BL/6J mice; assay: Hypothermia (Tb by telemetry) after ip dosing; assay type: in vivo, mouse; settings: average from dosing to 60 min, mean±SD
# Description: as §1
# [13] = target: sigma receptor σ2 (UniProt Q5BJF2); assay: Off-target interaction determined by the PDSP; assay type: binding, human; settings: read-out: Off-target, receptor (h, unless noted) (Ki, μM): σ2
# [14] = target: sigma receptor σ1 (Homo sapiens, UniProt Q99720); assay: Off-target interaction determined by the PDSP; assay type: binding; settings: read-out: Off-target, receptor (h, unless noted) (Ki, μM): σ1
# [15] = target: adrenergic receptor α2A (Homo sapiens, UniProt P08913); assay: Off-target interaction determined by the PDSP; assay type: binding; settings: read-out: Off-target, receptor (h, unless noted) (Ki, μM): α2A
# [16] = target: serotonin receptor 5HT2B (Homo sapiens, UniProt P41595); assay: Off-target interaction determined by the PDSP; assay type: binding; settings: read-out: Off-target, receptor (h, unless noted) (Ki, μM): 5HT2B
# [17] = target: histamine receptor H2 (Homo sapiens, UniProt P25021); assay: Off-target interaction determined by the PDSP; assay type: binding; settings: read-out: Off-target, receptor (h, unless noted) (Ki, μM): H2
# [18] = target: muscarinic receptor M3 (Homo sapiens, UniProt P20309); assay: Off-target interaction determined by the PDSP; assay type: binding; settings: read-out: Off-target, receptor (h, unless noted) (Ki, μM): M3
# [19] = target: kappa (KOR) opioid receptor (Homo sapiens, UniProt P41145); assay: Off-target interaction determined by the PDSP; assay type: binding; settings: read-out: Off-target, receptor (h, unless noted) (Ki, μM): KOR
# [20] = target: histamine receptor H3 (Homo sapiens, UniProt Q9Y5N1); assay: Off-target interaction determined by the PDSP; assay type: binding; settings: read-out: Off-target, receptor (h, unless noted) (Ki, μM): H3
# [21] = target: adrenergic receptor β3 (Homo sapiens, UniProt P13945); assay: Off-target interaction determined by the PDSP; assay type: binding; settings: read-out: Off-target, receptor (h, unless noted) (Ki, μM): β3
# Chain of adrenergic receptor β3 (P13945 whole entry): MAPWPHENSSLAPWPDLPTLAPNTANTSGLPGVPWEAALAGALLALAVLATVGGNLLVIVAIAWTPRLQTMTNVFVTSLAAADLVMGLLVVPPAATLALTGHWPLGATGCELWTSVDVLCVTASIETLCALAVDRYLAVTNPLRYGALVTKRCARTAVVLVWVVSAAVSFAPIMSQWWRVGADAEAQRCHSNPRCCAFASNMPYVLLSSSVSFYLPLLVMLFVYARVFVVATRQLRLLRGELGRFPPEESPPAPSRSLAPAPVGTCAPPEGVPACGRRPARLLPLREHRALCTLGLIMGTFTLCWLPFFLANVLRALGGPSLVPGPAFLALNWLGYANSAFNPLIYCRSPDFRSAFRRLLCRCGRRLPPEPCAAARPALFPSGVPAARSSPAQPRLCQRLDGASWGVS
# Chain of mA2AAR (Q60613 whole entry): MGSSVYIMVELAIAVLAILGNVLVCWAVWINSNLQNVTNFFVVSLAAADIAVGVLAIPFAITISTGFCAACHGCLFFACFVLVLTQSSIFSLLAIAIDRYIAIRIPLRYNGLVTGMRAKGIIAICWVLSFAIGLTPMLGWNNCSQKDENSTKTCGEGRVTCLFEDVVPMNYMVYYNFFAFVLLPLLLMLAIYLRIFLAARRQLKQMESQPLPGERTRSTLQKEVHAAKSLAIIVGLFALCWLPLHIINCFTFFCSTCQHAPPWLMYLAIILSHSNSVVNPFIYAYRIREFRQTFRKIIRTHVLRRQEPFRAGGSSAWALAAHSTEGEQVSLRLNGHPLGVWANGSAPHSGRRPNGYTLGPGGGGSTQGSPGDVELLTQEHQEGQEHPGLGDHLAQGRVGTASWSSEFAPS
# Chain of serotonin receptor 5HT2B (P41595 whole entry): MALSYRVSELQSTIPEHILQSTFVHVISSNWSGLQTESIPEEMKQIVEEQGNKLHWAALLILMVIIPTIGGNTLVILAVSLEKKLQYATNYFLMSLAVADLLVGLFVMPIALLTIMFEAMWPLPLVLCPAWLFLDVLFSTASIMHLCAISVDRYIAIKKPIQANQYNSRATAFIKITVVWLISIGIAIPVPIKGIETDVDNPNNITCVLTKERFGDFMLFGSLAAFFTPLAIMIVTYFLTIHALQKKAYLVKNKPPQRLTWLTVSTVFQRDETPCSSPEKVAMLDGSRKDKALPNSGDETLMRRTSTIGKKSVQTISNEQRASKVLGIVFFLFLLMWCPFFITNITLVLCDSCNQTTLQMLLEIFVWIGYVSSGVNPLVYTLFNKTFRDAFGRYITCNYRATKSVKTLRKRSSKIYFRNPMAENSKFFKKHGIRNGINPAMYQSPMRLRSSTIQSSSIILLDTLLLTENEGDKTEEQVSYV
# T2 sequence (P29274 whole entry): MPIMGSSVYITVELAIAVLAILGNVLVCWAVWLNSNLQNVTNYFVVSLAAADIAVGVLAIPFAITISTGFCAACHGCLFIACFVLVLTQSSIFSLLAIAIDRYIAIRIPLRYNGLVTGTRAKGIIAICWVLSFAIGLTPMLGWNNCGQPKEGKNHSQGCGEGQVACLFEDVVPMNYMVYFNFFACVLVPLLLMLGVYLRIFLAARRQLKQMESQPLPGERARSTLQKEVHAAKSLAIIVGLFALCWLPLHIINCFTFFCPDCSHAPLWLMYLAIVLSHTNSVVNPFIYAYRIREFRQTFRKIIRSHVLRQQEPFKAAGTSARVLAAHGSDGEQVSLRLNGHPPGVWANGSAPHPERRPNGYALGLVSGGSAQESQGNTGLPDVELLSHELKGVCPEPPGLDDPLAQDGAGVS
# Chain of dopamine transporter (DAT) (Q01959 whole entry): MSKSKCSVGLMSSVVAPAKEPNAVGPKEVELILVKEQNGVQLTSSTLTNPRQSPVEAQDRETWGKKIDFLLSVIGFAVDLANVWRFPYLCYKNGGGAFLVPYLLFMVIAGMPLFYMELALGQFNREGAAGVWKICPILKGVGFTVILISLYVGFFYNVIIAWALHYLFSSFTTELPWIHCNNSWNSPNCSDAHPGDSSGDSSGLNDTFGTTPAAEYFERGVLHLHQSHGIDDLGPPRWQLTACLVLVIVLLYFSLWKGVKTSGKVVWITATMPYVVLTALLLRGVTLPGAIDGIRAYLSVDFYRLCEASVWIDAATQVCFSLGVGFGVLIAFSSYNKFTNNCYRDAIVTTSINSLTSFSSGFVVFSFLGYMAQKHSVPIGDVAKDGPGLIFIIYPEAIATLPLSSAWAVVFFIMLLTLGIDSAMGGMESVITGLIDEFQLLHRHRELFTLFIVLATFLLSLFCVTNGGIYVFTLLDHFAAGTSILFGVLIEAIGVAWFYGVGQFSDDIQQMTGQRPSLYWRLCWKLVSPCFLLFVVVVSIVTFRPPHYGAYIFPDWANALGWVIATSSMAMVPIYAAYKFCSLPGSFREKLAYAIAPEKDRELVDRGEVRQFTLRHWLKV
# Chain of histamine receptor H3 (Q9Y5N1 whole entry): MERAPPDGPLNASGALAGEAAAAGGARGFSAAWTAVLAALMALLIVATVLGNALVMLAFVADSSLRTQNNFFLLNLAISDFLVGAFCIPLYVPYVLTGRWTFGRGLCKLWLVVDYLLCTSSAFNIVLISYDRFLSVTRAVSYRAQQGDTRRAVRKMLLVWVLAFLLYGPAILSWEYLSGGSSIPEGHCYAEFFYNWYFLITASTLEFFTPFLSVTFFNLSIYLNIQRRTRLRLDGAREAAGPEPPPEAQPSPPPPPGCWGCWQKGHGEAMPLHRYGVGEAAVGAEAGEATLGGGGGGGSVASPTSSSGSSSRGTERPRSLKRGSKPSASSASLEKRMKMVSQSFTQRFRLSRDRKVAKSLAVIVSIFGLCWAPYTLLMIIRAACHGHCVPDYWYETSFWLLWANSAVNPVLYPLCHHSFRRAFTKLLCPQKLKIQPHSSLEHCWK
# Chain of histamine receptor H2 (P25021 whole entry): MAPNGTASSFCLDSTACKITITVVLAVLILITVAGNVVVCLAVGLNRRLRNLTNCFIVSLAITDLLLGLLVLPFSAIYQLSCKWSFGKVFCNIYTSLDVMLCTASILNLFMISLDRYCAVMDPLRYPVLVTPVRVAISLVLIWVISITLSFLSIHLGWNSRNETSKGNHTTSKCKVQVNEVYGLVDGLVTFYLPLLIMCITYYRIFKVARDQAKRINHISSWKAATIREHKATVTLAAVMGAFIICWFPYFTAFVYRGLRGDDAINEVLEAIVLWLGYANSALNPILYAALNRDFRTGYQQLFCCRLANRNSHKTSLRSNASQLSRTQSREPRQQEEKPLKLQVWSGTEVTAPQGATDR
# Chain of muscarinic receptor M3 (P20309 whole entry): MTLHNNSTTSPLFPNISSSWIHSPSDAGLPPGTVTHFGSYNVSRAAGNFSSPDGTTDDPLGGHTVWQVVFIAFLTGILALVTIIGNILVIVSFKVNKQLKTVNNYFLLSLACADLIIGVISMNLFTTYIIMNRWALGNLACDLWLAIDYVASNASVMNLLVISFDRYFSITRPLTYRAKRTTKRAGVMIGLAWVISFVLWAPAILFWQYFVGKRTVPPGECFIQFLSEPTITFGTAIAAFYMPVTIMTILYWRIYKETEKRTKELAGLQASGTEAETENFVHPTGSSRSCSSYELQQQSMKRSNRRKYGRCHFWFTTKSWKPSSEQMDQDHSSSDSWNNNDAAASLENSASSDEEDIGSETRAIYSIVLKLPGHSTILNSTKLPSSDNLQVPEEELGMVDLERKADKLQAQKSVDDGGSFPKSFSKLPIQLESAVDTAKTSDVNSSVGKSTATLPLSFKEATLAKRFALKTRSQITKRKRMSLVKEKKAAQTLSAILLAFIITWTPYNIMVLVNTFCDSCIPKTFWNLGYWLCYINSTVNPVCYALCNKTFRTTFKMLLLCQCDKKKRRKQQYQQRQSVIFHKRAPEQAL
# Chain of kappa (KOR) opioid receptor (P41145 whole entry): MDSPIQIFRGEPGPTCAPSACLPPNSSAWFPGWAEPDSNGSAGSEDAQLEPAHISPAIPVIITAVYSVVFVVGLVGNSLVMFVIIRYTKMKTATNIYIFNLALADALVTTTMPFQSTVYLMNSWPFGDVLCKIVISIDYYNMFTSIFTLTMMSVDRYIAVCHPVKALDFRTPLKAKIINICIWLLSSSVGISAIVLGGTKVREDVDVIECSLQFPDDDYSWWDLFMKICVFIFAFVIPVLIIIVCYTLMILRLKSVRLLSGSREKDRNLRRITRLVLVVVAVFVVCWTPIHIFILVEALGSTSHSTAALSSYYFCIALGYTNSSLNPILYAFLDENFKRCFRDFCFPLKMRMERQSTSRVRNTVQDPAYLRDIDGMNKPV
# Chain of adrenergic receptor α2A (P08913 whole entry): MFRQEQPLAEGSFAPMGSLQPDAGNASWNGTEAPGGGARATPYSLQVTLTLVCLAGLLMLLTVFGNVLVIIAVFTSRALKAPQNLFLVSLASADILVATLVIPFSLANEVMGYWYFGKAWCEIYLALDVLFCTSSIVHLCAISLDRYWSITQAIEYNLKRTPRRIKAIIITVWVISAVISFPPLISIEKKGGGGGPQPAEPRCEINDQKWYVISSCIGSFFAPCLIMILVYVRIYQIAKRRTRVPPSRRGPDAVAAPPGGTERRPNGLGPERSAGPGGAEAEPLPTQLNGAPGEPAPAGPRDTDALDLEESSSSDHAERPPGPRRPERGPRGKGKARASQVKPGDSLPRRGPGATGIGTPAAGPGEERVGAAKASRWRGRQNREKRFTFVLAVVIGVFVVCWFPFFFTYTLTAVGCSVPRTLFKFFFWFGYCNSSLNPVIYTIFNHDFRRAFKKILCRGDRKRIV
# Chain of sigma receptor σ1 (Q99720 whole entry): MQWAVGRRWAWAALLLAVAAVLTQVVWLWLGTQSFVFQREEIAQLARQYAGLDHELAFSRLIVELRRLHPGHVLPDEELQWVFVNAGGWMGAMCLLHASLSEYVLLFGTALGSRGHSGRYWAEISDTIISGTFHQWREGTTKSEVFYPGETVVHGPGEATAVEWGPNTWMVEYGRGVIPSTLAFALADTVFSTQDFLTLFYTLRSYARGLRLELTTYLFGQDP
Ki [1],inhibition at 10 µM [2],inhibition at 10 µM [3],inhibition at 10 µM [5],Ki [6],Ki [7],Ki [8],Ki [10],Ki [13],Ki [16],Ki [5],Compound,Activity (counts) ([9]; 10 mg/kg ip),Tb (° C.) ([12]; 10 mg/kg ip),other results
0.00896 ± 0.00102 µM,55 ± 5%,26%,25 ± 2%,0.612 µM,0.00247 µM,0.238 µM,2.93 µM,,,,"OC[C@@]12C[C@@H]1[C@@H](n1cnc3c(NC(C4CCC4)C4CCC4)nc(Cl)nc31)[C@H](O)[C@@H]2O [Compound 25, (1R,2R,3S,4R,5S)-4-(2-Chloro-6-((dicyclobutylmethyl)amino)-9H-purin-9-yl)-1-(hydroxymethyl)bicyclo[3.1.0]hexane-2,3-diol]",18.4 ± 3.2 counts,36.6 ± 0.2 °C,Ki [4]: 3 µM; Ki [11]: 4.75 µM
0.0327 ± 0.0124 µM,38 ± 3%,,49 ± 4%,0.934 µM,0.00105 µM,,2.02 µM,1.17 µM,2.01 µM,,"O[C@H]1[C@H](n2cnc3c(NC(C4CCC4)C4CCC4)ncnc32)[C@H]2C[C@@]2(CCl)[C@H]1O [Compound 26, (1S,2R,3S,4R,5S)-1-(Chloromethyl)-4-(6-((dicyclobutylmethyl)amino)-9H-purin-9-yl)bicyclo[3.1.0]hexane-2,3-diol]",,,Ki [14]: 1.5 µM; Activity (counts) ([9]; 3 mg/kg ip): 14.8 ± 1.7 counts; Ki [15]: 6.8 µM; Tb (° C.) ([12]; 3 mg/kg ip): 35.9 ± 0.5 °C
0.12 ± 0.023 µM,17 ± 24%,20%,,,0.0112 µM,1.75 µM,2.89 µM,0.349 µM,,3.82 ± 1.82 µM,"O[C@H]1[C@H](n2cnc3c(NC(C4CCC4)C4CCC4)nc(Cl)nc32)[C@H]2C[C@@]2(CCl)[C@H]1O [Compound 27, (1S,2R,3S,4R,5S)-4-(2-Chloro-6-((dicyclobutylmethyl)amino)-9H-purin-9-yl)-1-(chloromethyl)bicyclo[3.1.0]hexane-2,3-diol]",18.9 ± 10.2 counts,36.5 ± 0.6 °C,Ki [17]: 2.6 µM
0.0738 ± 0.0142 µM,57 ± 12%,,,,,0.089 µM,,2.02 µM,0.097 µM,1.16 ± 0.3 µM,"CCOC(=O)[C@@]12C[C@@H]1[C@@H](n1cnc3c(NC(C4CCC4)C4CCC4)nc(Cl)nc31)[C@H](O)[C@@H]2O [Compound 35, Ethyl (1S,2R,3S,4R,5S)-4-(2-Chloro-6-((dicyclobutylmethyl)amino)-9H-purin-9-yl)-2,3-dihydroxybicyclo[3.1.0]hexane-1-carboxylate]",,,Ki [18]: 5.9 µM
0.0176 ± 0.0053 µM,,23%,,0.447 µM,0.00156 µM,,,,0.718 µM,0.127 ± 0.029 µM,"O=C(NCCO)[C@@]12C[C@@H]1[C@@H](n1cnc3c(N[C@H]4C[C@H]5CC[C@@H]4C5)nc(Cl)nc31)[C@H](O)[C@@H]2O [Compound 37, (1S,2R,3S,4R,5S)-4-(6-(((1R,2S,4S)-bicyclo[2.2.1]heptan-2-yl)amino)-2-chloro-9H-purin-9-yl)-2,3-dihydroxy-N-(2-hydroxyethyl)bicyclo[3.1.0]hexane-1-carboxamide]",,,"Ki ([2]; (h), values without % sign (Ki)): 5.4 µM; Ki [19]: 2.63 µM"
,14 ± 5%,,22 ± 4%,,2.99 ± 0.08 µM,,,1.72 µM,,,"COC(=O)c1ncn([C@H]2[C@H](O)[C@H](O)[C@]3(CO)C[C@H]23)n1 [Compound 39, Methyl 1-((1S,2R,3S,4R,5R)-3,4-dihydroxy-5-(hydroxymethyl)bicyclo[3.1.0]hexan-2-yl)-1H-1,2,4-triazole-3-carboxylate]",,,inhibition at 10 µM [1]: 6 ± 4%; Ki [20]: 4.52 µM; inhibition at 10 µM ([6]; read-out: A3AR % inhibition or Ki): 15 ± 2%; Ki [21]: 1.42 µM
